The record followed here is patent publication US7258999B2, “PTH responsive gene” (Wyeth, priority 2002, dated 2007).

One assay relates to PAIGB expression. Nature of the assay: Real time PCR of PAIGB in brain, kidney and heart after intermittent PTH. The format is in vivo, rat. The following applies: intermittent injection. From the text:
Applicants performed multiplex real time PCR (TaqMan) analysis on previously DNAsed samples using gene specific probe and primers and 18S ribosomal RNA probe and primer sets purchased from Applied Biosystem. (Foster City, Calif.) The samples were DNAsed according to the protocol provided by Ambion (DNA-free kit). TaqMan probe and primers for PAIGB was identify using Primer Express computer program. The sequence for rat PAIGB TaqMan probe was 6FAM-5′[…] (SEQ ID NO: 16) forward and reverse primers were 5′[…] 3′ (SEQ ID NO:17) and 5′ […] 3′ (SEQ ID NO:18) respectively. The final concentrations for probes were 500 nM and 40 nM for PAIGB and 18S ribosomal RNA or GAPDH respectively. The concentrations of the primers were 500 nM for PAIGB forward and reversed primers while 18S primers were 10 and 20 nM for forward and reversed primer respectively or 40 nM for GAPDH primers. Standards for rat samples were made from rat tibia or brain RNA in the range of 250 ng to 0.1 ng, while standards for mouse specific TaqMan were made from mouse brain RNA and human standards from human brain RNA (Clonetech, Palo Alto, Calif.) spanning the same range of concentration. Primers and probes for mouse PAIGB were: forward 5′ […] 3′ (SEQ ID NO:19), reverse, 5′ […] 3′ (SEQ ID NO:20) anti-sense and probe 5′ 6FAM-[…] (SEQ ID NO:21). Primers and probes for human PAIGB were: forward 5′ […] 3′ (SEQ ID NO:22), reverse 5′ […] […]
For orientation: Quantitative PCR measures a nucleic acid by following its amplification.

In assay [1] the test system is Ovariectomized Rats with Established Osteopenia. Nature of the assay: pQCT total and trabecular density (BMD) of proximal tibia in OVX rats. The format is in vivo, rat. To be noted: for ΔTotal Density / ΔTrabecular Density: 40 μg/kg sc, mean ± SEM. How it is done: The total density of the proximal tibia was evaluated in anesthetized rats using peripheral quantitative computed tomography (pQCT) with XCT-960M (Stratec Medizintechnik, Pforzheim, Germany). The baseline and post-treatment measurements were performed in anesthetized rats as follows: The right hind limb was passed through a polycarbonate tube with a diameter of 25 mm and taped to an acrylic frame with the ankle joint at a 90° angle and the knee joint at 180°. The polycarbonate tube was affixed to a sliding platform that maintained it perpendicular to the aperture of the pQCT. The platform was adjusted so that the distal end of the femur and the proximal end of the tibia would be in the scanning field. A two dimensional scout view was run for a length of 10 mm and a line resolution of 0.2 mm. […] The pQCT scan was initiated 3.4 mm distal from this point. […] A region of interest including the tibia but excluding the fibula was outlined. The soft tissue was automatically removed using an iterative algorithm. The density of the remaining bone (Total density) was reported in mg/cm^3. The change in total density was calculated for each animal by subtracting post-treatment and baseline total density values.
Female Wister rats 4 weeks of age were treated with vehicle (saline) and human PTH (1-34) at a dose of 40 μg/kg of body weight for eight days. Prior to PTH administration animals were ovariectomized (OVX). Three weeks post OVX total BMD was measured to determine if osteopenia was established. Subcutaneous injection of PTH once a day represented intermittent administration of PTH, while osmotic pump with release rate of 40 μg/kg/day implanted under the skin represented continuous way of PTH administration. On the eight day of treatment, 6 hours post treatment animals were scarified and samples were collected for further analysis. Each treatment group contained 8 animals.
PTH (1-34) in a dose of 40 μg/kg was administered for eight days to the 3 weeks OVX rats in intermitted and continuous manner to induce anabolic and catabolic PTH effects respectively. As described in General Method section, intermittent administration of PTH was presented by once a day subcutaneous injection of PTH while continues administration was presented with osmotic pumps implanted under the skin with release rate of 40 μg/kg a day. Total bone mineral density was measured using pQCT. Intermittent PTH injection induced significant increases in total BMD, with Δ BMD of […] (FIG. 1). […] Thus, PTH exerts its effect on bone anabolic and catabolic (i.e., causing a decrease in BMD) depending of the way of its administration.
In order to examine whether changes in PAIGB expression with intermittent PTH treatment correlates with effects of PTH on bone, samples from rats treated with PTH for 2, 4 and 8 days were subjected to BMD measurements for both total and trabecular bone (trabecular density of proximal tibia was measured). Two days PTH treatment increases expression of PAIGB. At the same time point significant increase in trabecular BMD (Δ trabecular density: 6.98+/−17.90 with PTH treatment vs −27.1+/−9.27 with vehicle treatment) was detected without any significant changes in total BMD (Δ total density: −9.15+/−2.94 PTH vs 0.69+/−4.10 vehicle) (Table 1).

[2] abbreviates: four days treatment, listed as HPTH (1–34).
Where [3] appears, read: four days treatment, listed as PTH.
[4] abbreviates: two days treatment, listed as HPTH (1–34).
Setting [5] is: two days treatment, listed as PTH.

With human PTH (1-34), in the assay on PAIGB expression, the “changes in PAIGB expression in brain, kidney and heart” value is “did not produce any changes”. The “change in total BMD” value in assay [1] (continuous: osmotic pump 40 μg/kg a day, eight days, 3 weeks OVX rats) is “did not induce any changes”. In addition, the “ΔTotal Density” value was -10.56 ± 3.11 mg/mL in assay [1] (setting [2]), 10.56 ± 3.11 mg/mL in assay [1] (setting [3]), -9.15 ± 2.94 mg/mL in assay [1] (setting [4]) and -9.15 ± 2.94 mg/mL in assay [1] (setting [5]). For the same substance, the “ΔTrabecular Density” value in assay [1] (setting [2]) turned out to be 8.70 ± 9.98 mg/mL; in assay [1] (setting [3]), 8.70 ± 9.98 mg/mL; in assay [1] (setting [4]), 6.98 ± 17.90 mg/mL; in assay [1] (setting [5]), 6.98 ± 17.90 mg/mL. The Δ BMD (total BMD) in assay [1] (intermittent: 40 μg/kg once a day sc, eight days, 3 weeks OVX rats) came out at 80 mg/cm³.
